Measured values as given in paper doi:10.1101/2021.10.07.463234v2 (biorxiv, 2021).
Structures can show the parent of a compound that is named as a salt.

These molecules were tested against SARS-CoV-2 Mac1 (Severe acute respiratory syndrome coronavirus 2, UniProt P0DTD1) (assay: biochemical). Conditions: 100 µM; inhibitor.

Row | Compound | %inhibition [%]
1 | N[C@@H](Cc1cc(I)c(Oc2cc(I)c(O)c(I)c2)c(I)c1)C(=O)O [L-Thyroxine] | 10.74
2 | OC[C@@H](O)[C@@H](O[C@@H]1O[C@H](CO)[C@H](O)[C@H](O)[C@H]1O)[C@H](O)[C@@H](O)CO [Lactitol monohydrate] | 1.512
3 | OC[C@@H](O)[C@@H](O[C@@H]1O[C@H](CO)[C@H](O)[C@H](O)[C@H]1O)[C@H](O)[C@@H](O)CO [Lactitol] | 5.8
4 | CS(=O)(=O)CCNCc1ccc(-c2ccc3ncnc(Nc4ccc(OCc5cccc(F)c5)c(Cl)c4)c3c2)o1 [Lapatinib (GW-572016) Ditosylate] | 16.67
5 | CS(=O)(=O)CCNCc1ccc(-c2ccc3ncnc(Nc4ccc(OCc5cccc(F)c5)c(Cl)c4)c3c2)o1 [Lapatinib ditosylate monohydrate] | 13.25
6 | CS(=O)(=O)CCNCc1ccc(-c2ccc3ncnc(Nc4ccc(OCc5cccc(F)c5)c(Cl)c4)c3c2)o1 [Lapatinib] | 0
7 | COc1cc2nccc(Oc3ccc(NC(=O)NC4CC4)c(Cl)c3)c2cc1C(N)=O [Lenvatinib (E7080)] | 22.86
8 | CCNC(=O)[C@@H]1CCCN1C(=O)[C@H](CCCNC(=N)N)NC(=O)[C@H](CC(C)C)NC(=O)[C@@H](CC(C)C)NC(=O)[C@H](Cc1ccc(O)cc1)NC(=O)[C@H](CO)NC(=O)[C@H](Cc1c[nH]c2ccccc12)NC(=O)[C@H](Cc1c[nH]cn1)NC(=O)[C@@H]1CCC(=O)N1 [Leuprorelin Acetate] | 6.662
9 | C[C@H]1COc2c(N3CCN(C)CC3)c(F)cc3c(=O)c(C(=O)O)cn1c23 [Levofloxacin hydrate] | 0
10 | C[C@H]1COc2c(N3CCN(C)CC3)c(F)cc3c(=O)c(C(=O)O)cn1c23 [Levofloxacin] | 22.21
11 | N[C@@H](Cc1cc(I)c(Oc2cc(I)c(O)c(I)c2)c(I)c1)C(=O)O [Levothyroxine sodium] | 4.124
12 | CCN(CC)CC(=O)Nc1c(C)cccc1C [Lidocaine hydrochloride] | 4.808
13 | CCN(CC)CC(=O)Nc1c(C)cccc1C [Lidocaine] | 1.6
14 | CCC[C@@H]1C[C@@H](C(=O)N[C@@H]([C@H]2O[C@H](SC)[C@H](O)[C@@H](O)[C@H]2O)[C@@H](C)O)N(C)C1 [Lincomycin HCl] | 0
15 | CCC[C@@H]1C[C@@H](C(=O)N[C@@H]([C@H]2O[C@H](SC)[C@H](O)[C@@H](O)[C@H]2O)[C@@H](C)O)N(C)C1 [Lincomycin Hydrochloride Monohydrate] | 16.9

Same assay, conditions: read-out: %inhibition

Row | Compound | inhibition at 100 µM [%]
16 | COc1cc2c(cc1OC)CC(=O)N(CCCN(C)C[C@H]1Cc3cc(OC)c(OC)cc31)CC2 [Ivabradine HCl] | 0
17 | CC(C)(C)c1cc(C(C)(C)C)c(NC(=O)c2c[nH]c3ccccc3c2=O)cc1O [Ivacaftor (VX-770)] | 5.97
18 | N#Cc1ccnc(N2C(=O)CC[C@H]2C(=O)N(c2cncc(F)c2)[C@H](C(=O)NC2CC(F)(F)C2)c2ccccc2Cl)c1 [Ivosidenib (AG-120)] | 9.59
19 | C/C(=C\c1csc(C)n1)[C@@H]1C[C@@H]2O[C@]2(C)CCC[C@H](C)[C@H](O)[C@@H](C)C(=O)C(C)(C)[C@@H](O)CC(=O)N1 [Ixabepilone (BMS-247550)] | 5.68
20 | CC(C)C[C@H](NC(=O)CNC(=O)c1cc(Cl)ccc1Cl)B(O)O [Ixazomib (MLN2238)] | 5.63
21 | CC(C)C[C@H](NC(=O)CNC(=O)c1cc(Cl)ccc1Cl)B1OC(=O)CC(CC(=O)O)(C(=O)O)O1 (some centres unmarked) [Ixazomib Citrate (MLN9708)] | 0
22 | NC[C@H]1O[C@H](O[C@H]2[C@H](O)[C@@H](O[C@H]3O[C@H](CO)[C@@H](O)[C@H](N)[C@H]3O)[C@H](N)C[C@@H]2N)[C@H](O)[C@@H](O)[C@@H]1O [Kanamycin sulfate] | 4.88
23 | O=C(c1ccc(F)cc1)C1CCN(CCn2c(=O)[nH]c3ccccc3c2=O)CC1 [Ketanserin] | 11.6
24 | CC(C(=O)O)c1cccc(C(=O)c2ccccc2)c1 (centres unmarked) [Ketoprofen] | 0
25 | O=C(c1ccccc1)c1ccc2n1CCC2C(=O)O (centres unmarked) [Ketorolac] | 11.8
26 | CN1CCC(=C2c3ccccc3CC(=O)c3sccc32)CC1 [Ketotifen Fumarate] | 0
27 | CNC[C@@H](O)c1ccc(O)c(O)c1 [L-Adrenaline] | 31.6
28 | N=C(N)NCCC[C@H](N)C(=O)O [L-Arginine HCl (L-Arg)] | 0
29 | N[C@H]1CONC1=O [L-Cycloserine] | 1.65
30 | N[C@@H](CS)C(=O)O [L-Cysteine HCl] | 0
31 | N[C@@H](CCC(=O)O)C(=O)O [L-Glutamic acid monosodium salt] | 0
32 | NC(=O)CC[C@H](N)C(=O)O [L-Glutamine] | 0
33 | CC(C)C[C@H](N)C(=O)O [L-Leucine] | 0
34 | NCCCC[C@H](N)C(=O)O [L-Lysine hydrochloride] | 9.1

Row | Compound | inhibition at 100 µM [%]
35 | NCCC[C@H](N)C(=O)O [L-Ornithine] | 0
36 | C[Se]CC[C@H](N)C(=O)O [L-SelenoMethionine] | 0
37 | C[N+](C)(C)C[C@H](O)CC(=O)[O-] [L-carnitine] | 3.55
38 | CC(CCc1ccccc1)NCC(O)c1ccc(O)c(C(N)=O)c1 (centres unmarked) [Labetalol HCl] | 0
39 | CCOC(=O)C1=C(C)NC(C)=C(C(=O)OCC)C1c1ccccc1/C=C/C(=O)OC(C)(C)C [Lacidipine] | 3.07
40 | O=C(C[S+]([O-])Cc1ccco1)NC/C=C\COc1cc(CN2CCCCC2)ccn1 (centres unmarked) [Lafutidine] | 0
41 | Nc1ccn([C@@H]2CS[C@H](CO)O2)c(=O)n1 [Lamivudine] | 0
42 | Nc1nnc(-c2cccc(Cl)c2Cl)c(N)n1 [Lamotrigine] | 12.3
43 | CC1(C)OC[C@@H](COC(=O)CCc2ccc(OC[C@@H](O)CNCCNC(=O)N3CCOCC3)cc2)O1 [Landiolol hydrochloride] | 18
44 | Cc1c(OCC(F)(F)F)ccnc1C[S+]([O-])c1nc2ccccc2[nH]1 (centres unmarked) [Lansoprazole] | 4.45
45 | CCN(C(=O)c1c(O)c2c(Cl)cccc2n(C)c1=O)c1ccccc1 [Laquinimod] | 22.6
46 | CO[C@@]1(NC(=O)C(C(=O)O)c2ccc(O)cc2)C(=O)N2C(C(=O)O)=C(CSc3nnnn3C)CO[C@@H]21 (some centres unmarked) [Latamoxef sodium] | 17
47 | CC(C)OC(=O)CCC/C=C\C[C@@H]1[C@@H](CC[C@@H](O)CCc2ccccc2)[C@H](O)C[C@@H]1O [Latanoprost] | 23.8
48 | COC(=O)N[C@H](C(=O)N1CC2(CC2)C[C@H]1c1nc(-c2ccc3c(c2)C(F)(F)c2cc(-c4ccc5[nH]c([C@@H]6[C@H]7CC[C@H](C7)N6C(=O)[C@@H](NC(=O)OC)C(C)C)nc5c4)ccc2-3)c[nH]1)C(C)C [Ledipasvir (GS5885)] | 23.8
49 | Cc1oncc1C(=O)Nc1ccc(C(F)(F)F)cc1 [Leflunomide] | 22.5
50 | Nc1cccc2c1CN(C1CCC(=O)NC1=O)C2=O (centres unmarked) [Lenalidomide (CC-5013)] | 40.3
51 | COC(=O)C1=C(C)NC(C)=C(C(=O)OC(C)(C)CN(C)CCC(c2ccccc2)c2ccccc2)C1c1cccc([N+](=O)[O-])c1 (centres unmarked) [Lercanidipine hydrochloride] | 0
52 | O=C(O)CSc1nnc(Br)n1-c1ccc(C2CC2)c2ccccc12 [Lesinurad] | 2.49
53 | CCNC(=O)[C@@H]1CCCN1C(=O)[C@H](CCCNC(=N)N)NC(=O)[C@H](CC(C)C)NC(=O)[C@@H](CC(C)C)NC(=O)[C@H](Cc1ccc(O)cc1)NC(=O)[C@H](CO)NC(=O)[C@H](Cc1c[nH]c2ccccc12)NC(=O)[C@H](Cc1c[nH]cn1)NC(=O)[C@@H]1CCC(=O)N1 [Leuprolide Acetate] | 13.2

Row | Compound | inhibition at 100 µM [%]
54 | c1ccc([C@H]2CN3CCSC3=N2)cc1 [Levamisole hydrochloride] | 0
55 | CC[C@@H](C(N)=O)N1CCCC1=O [Levetiracetam] | 0
56 | CC(C)NC[C@H](O)COc1ccc(CCOCC2CC2)cc1 [Levobetaxolol HCl] | 12.1
57 | CCCCN1CCCC[C@H]1C(=O)Nc1c(C)cccc1C [Levobupivacaine HCl] | 0
58 | O=C(O)COCCN1CCN([C@H](c2ccccc2)c2ccc(Cl)cc2)CC1 [Levocetirizine Dihydrochloride] | 7.84
59 | OC[C@@H](O)CN1CCN(c2ccccc2)CC1 [Levodropropizine] | 4.43
60 | C#C[C@]1(O)CC[C@H]2[C@@H]3CCC4=CC(=O)CC[C@@H]4[C@H]3CC[C@@]21CC [Levonorgestrel] | 53.4
61 | C[C@@H]1CC(=O)NN=C1c1ccc(NN=C(C#N)C#N)cc1 [Levosimendan] | 0
62 | CCN1CCC[C@H]1CNC(=O)c1cc(S(N)(=O)=O)ccc1OC [Levosulpiride] | 0
63 | CS(=O)(=O)c1cccc(C[C@H](NC(=O)c2c(Cl)cc3c(c2Cl)CCN(C(=O)c2ccc4ccoc4c2)C3)C(=O)O)c1 [Lifitegrast] | 0
64 | CC#CCn1c(N2CCC[C@@H](N)C2)nc2c1c(=O)n(Cc1nc(C)c3ccccc3n1)c(=O)n2C [Linagliptin] | 23.9
65 | CC(=O)NC[C@H]1CN(c2ccc(N3CCOCC3)c(F)c2)C(=O)O1 [Linezolid] | 0
66 | Cc1ccc(F)c(NC(=O)Nc2ccc(-c3cccc4[nH]nc(N)c34)cc2)c1 [Linifanib (ABT-869)] | 52.3
67 | C[C@]1(O)C[C@@H](c2nc(-c3ccc4ccc(-c5ccccc5)nc4c3)c3c(N)nccn32)C1 [Linsitinib (OSI-906)] | 9.54
68 | NCCCC[C@H](N[C@@H](CCc1ccccc1)C(=O)O)C(=O)N1CCC[C@H]1C(=O)O [Lisinopril] | 3.22
69 | C[C@H](CCC(=O)O)[C@H]1CC[C@H]2[C@@H]3CC[C@@H]4C[C@H](O)CC[C@]4(C)[C@H]3CC[C@]12C [Lithocholic acid] | 0
70 | CCn1cc(C(=O)O)c(=O)c2cc(F)c(N3CCNC(C)C3)c(F)c21 (centres unmarked) [Lomefloxacin] | 0
71 | COc1ccc(CN2CCN(C(c3ccc(F)cc3)c3ccc(F)cc3)CC2)c(OC)c1OC [Lomerizine 2HCl] | 12.8
